Measurements published in patent US20160103142A1, “Blood-Platelet Test Method and Blood-Platelet Test Device” (FUJIMORI KOGYO CO., LTD., priority 2008, published 2016).

Assays:
platelets [1] = assay: Camera images of platelet adherence in collagen-coated microchip 1 (Example 7); assay type: cell-based; conditions: ADP 0.025, 0.05, 0.1 μM in citric acid-treated blood, 8 μl/min, image after 1 minute
Experimental: (§1) In the first substrate 100, the length, depth and width of the channel (capillary) 101 were 20 mm, 50 μm and 2 mm, respectively.
A pump 109 was connected to the reservoir 107 via a tube, and the pressure exerted on the pump was measured with a pressure sensor which is not shown. In the reservoir 107, a cylindrical stirring bar 108 having a diameter of 2 mm and a length of 5 mm, which was prepared by coating an iron cylinder with PMEA, was contained. The stirring bar 108 was set such that it can be rotated at 60 to 180 rpm by the magnetic force of a stirrer 113 placed under the heater 115 which was heated to 37° C. An outlet duct 112 was connected to the outlet such that the blood after the analysis can be discharged. A camera 111 to which an image analyzer 114 was connected was placed above the channel dividing section 102 of the microchip 1, thereby allowing observation of the state of platelet activation in the channel dividing section 102.
An experiment was carried out using the microchip 1 and the system A in Example 1 for diagnosis by images. The pump 109 was filled with mineral oil, and the reservoir 107 was filled with blood anticoagulated with citric acid. The mineral oil was sent to the reservoir 107 using the pump 109 at a flow rate of 8 μl/min. to allow the blood to flow into the microchip 1. […]

platelets [2] = assay: Pressure increase in glass-surface microchip 2, citric acid-anticoagulated blood with ADP (Examples 8 to 10); assay type: ex vivo
Excerpt: The first substrate 200 shown in FIG. 3A and the second substrate 210 shown in FIG. 3B were laminated with and bonded to each other, to provide the microchip 2 shown in FIG. 3C. In terms of the substrate 200, a substrate made of PDMS (Fluidware) was used, and the depth of all the channels was 120 μm; the channel width was 1 mm; the length of the comb was 1 mm; the width of the comb was 50 μm; and the groove width was 50 μm. In terms of the substrate 210, a slide glass was used, and penetrating holes corresponding to the inlet and the outlet were provided as in the substrate 110, but, unlike the substrate 110, collagen was not applied since the glass plays a role as a platelet-adhesive surface. […] The mineral oil was injected from the pump 209 into the microchip 2 at a flow rate of 20 μl/min., and the inflow pressure of the mineral oil was measured by a pressure sensor which is not shown. Pressure changes were measured by carrying out an experiment which was the same as that in Example 8 except that ADP (manufactured by Wako Pure Chemical Industries, Ltd.) was further added to the blood anticoagulated with citric acid in the reservoir 207 to a final concentration of […]. Pressure changes were measured by carrying out an experiment which was the same as that in Example 9 except that blood collected 3 hours after dosing with 75 mg clopidogrel (Sanofi-aventis) was used.

platelets [3] = assay: Pressure increase in collagen-coated microchip 1, citric acid-treated blood with arachidonic acid or collagen (Examples 16 to 18); assay type: ex vivo; conditions: subject G
Experimental: as §1
The experiments a to f in Example 16 were carried out for the subject G 6 hours after dosing with 100 mg of aspirin.
Using blood of the subject G collected 6 hours after dosing with 100 mg of aspirin, experiments were carried out in the same manner as in Examples 16d to f except that the collagen to be added was increased to 12 μl or 18 μl.

platelets [4] = conditions: subject D, blood collected 6 hours after oral 100 mg clopidogrel, 6 μl of 100 μM ADP in about 600 μl blood, 20 μl/min
Experimental: Two transparent substrates, that is, the first substrate 100 shown in FIG. 1(A) and the second substrate 110 shown in FIG. 1(B) (injection-molded products manufactured by Richell Corporation) were prepared. The side of the first substrate 100 wherein a groove corresponding to a capillary 101 opens and the side of the second substrate 110 having a platelet-adhesive surface 106 were bonded together such that these face to each other using a silane coupling agent and thermocompression bonding, to provide the microchip 1 shown in FIG. 1(C). In the first substrate 100, the length, depth and width of the channel (capillary) 101 were 20 mm, 50 μm and 2 mm, respectively. In terms of the channel dividing section 102, dividing walls 103 each having a length of 1.5 mm, width of 50 μm and height of 50 μm were placed at equal intervals of 50 μm, and this part was used as the channel dividing section. In the second substrate, each of the holes corresponding to the inlet and the outlet was a penetrating hole having a circular cross section and an inner diameter of 2 mm and a depth of 2 mm. At the position on the second substrate 110 which is overlapped with the channel dividing section 102 of the first substrate 100, about 10 μl of 3 mg/ml collagen type I (manufactured by Nitta Gelatin Inc.) was applied and dried under vacuum to provide a platelet-adhesive surface 106. […]

platelets [5] = assay: Pressure increase in collagen-coated microchip 1, hirudin-anticoagulated blood with agent added (Examples 19 to 22); assay type: cell-based; conditions: flow rate 7 μl/min, ReoPro 0.4 or 0.8 μg/ml
Experimental: as §1
(a) Blood was collected from the subject D using a hirudin blood collection tube (Multiplate Services GmbH), and about 600 μl of the blood anticoagulated with hirudin was filled in the reservoir 207. The pump 209 was filled with mineral oil and connected to the reservoir 207, whose tip was further connected to the inlet 104 in the microchip 1.

Question: With Nc1ncnc2c1ncn2[C@@H]1O[C@H](COP(=O)(O)OP(=O)(O)O)[C@@H](O)[C@H]1O [ADP, adenosine diphosphate] as the molecule, how does the “amount of platelets adhered to the comb portion” value (platelets [1]) read?
Answer: increase in the amount of platelets adhered to the comb portion, which occurred in an ADP concentration-dependent manner

Question: And the “pressure increase in the pump on addition of ADP” value (platelets [2]; blood anticoagulated with citric acid, ADP final concentration 2 nM, flow rate 20 μl/min)?
Answer: caused pressure increase

Question: How did the “pressure increase of blood collected after aspirin with increased collagen” value (platelets [3]; 6 hours after 100 mg aspirin, collagen increased to 12 μl or 18 μl, 20 μl/min (FIG. 19)) turn out when CC(=O)Oc1ccccc1C(=O)O [aspirin] was run?
Answer: can also be made to cause pressure increase by increasing the collagen to be added

Question: And the “anti-platelet effect of aspirin by pressure increase” value (platelets [3]; 6 hours after dosing with 100 mg aspirin, arachidonic acid or collagen added, 20, 10, 5 μl/min)?
Answer: anti-platelet effect of aspirin can be analyzed

Question: How did the “pressure increase after administration of clopidogrel” value (platelets [4]) turn out when COC(=O)[C@H](c1ccccc1Cl)N1CCc2sccc2C1 [clopidogrel] was run?
Answer: pressure increase delayed

Question: What about the “ADP-induced pressure increase after administration of clopidogrel” value (platelets [2]; blood collected 3 hours after dosing with 75 mg clopidogrel, ADP 2 nM, 20 μl/min) of the same molecule?
Answer: the increase was suppressed

B1: ReoPro: ReoPro (Eli lilly), an antibody against the receptor GPIIb/IIIa on the platelet membrane (antibody, chains of the INN, looked up, V domains shown)
VH: EVQLQQSGTVLARPGASVKMSCEASGYTFTNYWMHWVKQRPGQGLEWIGAIYPGNSDTSYIQKFKGKAKLTAVTSTTSVYMELSSLTNEDSAVYYCTLYDGYYVFAYWGQGTLVTVSA
VL: EIVLTQSPVTLSVTPGDSVSLSCRASRDISNNLHWFQQTSHESPRLLIKYASQSMSGIPSRFSGSGSGTDFTLSINSVETEDFGMYFCQQTNSWPYTFGGGTKLEIK
modifications: Fab
notes: ReoPro (Eli lilly), an antibody against the receptor GPIIb/IIIa on the platelet membrane
Question: For B1, which “anti-platelet effect under low shear stress” value (platelets [5]) is on record?
Answer: rather strong anti-platelet effect
